Laboratory results taken from publication PMC12154426, “TPP-Based Nanovesicles Kill MDR Neuroblastoma Cells and Induce Moderate ROS Increase, While Exerting Low Toxicity Towards Primary Cell Cultures: An In Vitro Study” (International Journal of Molecular Sciences, 2025).
Read-outs that look alike come from different tables or passages of the source.

Experiments:
HTLA ER [1] = assay: MTS cell viability assay on HTLA ER NB cells; assay type: cell-based, human; settings: for HTLA ER more tolerant to BPPB than HTLA 230: from IC50
Description: In this section, the strong anticancer effect of BPPB against ETO-sensitive HTLA 230 and multidrug-resistant (MDR) HTLA ER neuroblastoma (NB) cells previously reported was confirmed. Cell viability in HTLA 230 and HTLA ER cells exposed to increasing concentrations of BPPB for 24, 48, and 72 h was assessed by using the MTS essay, which is an efficient, eco- and user-friendly tool, commonly used to investigate the behaviour of cancer cells when exposed to specific treatments and how these treatments influence their growth and viability.
Following this, µM concentrations (x) were transformed in Log10 (x) (Figure 1e (HTLA 230) and Figure 1f (HTLA ER), traces with indicators and error bar). The nonlinear regression models of the Log10 (BPPB concentrations) vs. the normalized response (Hill Slope) shown in Figure 1e (HTLA 230) and Figure 1f (HTLA ER), traces without indicators, elaborated by GraphPad Prism software version 8.0.1 (GraphPad Software, Boston, MA, USA), gave us the IC50 values of BPPB for both cell populations at 24, 48, and 72 h of treatment.
HTLA 230 is a MYCN-amplified human stage-IV NB cell line, obtained from the G. Gaslini Institute, Genoa, Italy. The cytogenetic features of the HTLA 230 cell line include […] MYCN amplification, del(11)t(11;Y), balanced translocation t(1;17)(p36;q21), and dup(11p), which were previously described by Pezzolo et al.. Cells were periodically tested for mycoplasma contamination (Mycoplasma Reagent Set, Aurogene s.p.a, Pavia, Italy). After thawing and eight passages in the culture, cell morphology and proliferation were analyzed. […] Both cell populations were cultured in RPMI 1640 (Euroclone SpA, Pavia, Italy) supplemented with 10% fetal bovine serum (FBS; Euroclone, Pavia, Italy), 2 mM glutamine (Euroclone, Pavia, Italy), 1% penicillin/streptomycin (Euroclone, Pavia, Italy), 1% sodium pyruvate (Sigma-Aldrich, Sant Louis, MO, USA), and 1% amino acid solution (Sigma).
To determine the cytotoxic effects of BPPB, in vitro time- and dose-dependent experiments were carried out, as recently described. Briefly, cells were treated for 24, 48, and 72 h, with increasing concentrations (0.1–2.0 µM) of the compound. […] Cell cultures were carefully monitored before and during the experiments to ensure optimal cell density.
Cell viability was determined by using the CellTiter 96® AQueous One Solution Cell Proliferation MTS Assay (Promega, Madison, WI, USA), as previously described. MTS is a colorimetric method commonly used for determining cell viability. The cell survival rate, expressed as the cell viability percentage (%), was evaluated based on the experimental outputs of treated cells vs. the untreated ones (CTRs), and was calculated as follows: cell viability (%) = (OD treated cells − OD blank)/(OD untreated cells − OD blank) × 100%. IC50 values were calculated by GraphPad Prism 8.0.1 Software (GraphPad Software v8.0, San Diego, CA, USA), as detailed in the Results and Discussion in Section 2.

HTLA ER [2] = assay: DAPI and Annexin-V/PI staining (necrosis/apoptosis), HTLA ER; assay type: cell-based, human; settings: 24 h
Text: Although it has been reported that diverse therapeutic approaches to counteract cancer, including chemotherapeutic drugs, gamma irradiation, suicide genes, or immunotherapy, are mediated through the induction of apoptosis, also necrosis, as well as other forms of cell death, that are not classified so far, may be triggered by anticancer therapies. Here, to evaluate if BPPB induced apoptosis or necrosis, both NB cell populations were labelled with Annexin-V-FITC/propidium iodide (PI) and analysed by confocal fluorescence microscopy, as reported in the literature. This is a standard procedure to monitor the progression of apoptosis and the possible presence of necrosis. […]
After the treatment, cells were washed with PBS and stained with the fluorescent DNA dye DAPI (1 µg/mL) for 30 min. After additional washing, the images were immediately acquired in the fluorescence mode using a Nikon AX R confocal microscope equipped with a PLAN APO 20× (Nikon Europe, B.V., Amstelveen, The Netherlands).
Apoptotic and necrotic cells were analysed, as described in Marengo et al.. […] After staining, the images were immediately acquired in fluorescence mode using a Nikon AX R confocal microscope equipped with a PLAN APO 20× (Nikon Europe, B.V., Amstelveen, The Netherlands).

Compound: c1ccc([P+](CCCCCCCCCCCC[P+](c2ccccc2)(c2ccccc2)c2ccccc2)(c2ccccc2)c2ccccc2)cc1 [BPPB, 1,1-(1,12-dodecanediyl)-bis-[1,1,1]-triphenyl phosphonium di-bromide]
- cell viability (HTLA ER [1]; 1.25 µM, 24 h): 42.5%
- cell viability (HTLA ER [1]; 1.25 µM, 72 h): 39.8%
- cell viability (HTLA ER [1]; 1.5 µM, 48 h): 39.4%
- cell viability (HTLA ER [1]; 2 µM, 24 h): 26.5%
- cell viability (HTLA ER [1]; 2 µM, 48 h): 33.1%
- cell viability (HTLA ER [1]; 2 µM, 72 h): 25.8%
- concentration causing significant reduction in viability of cells (HTLA ER [1]; 24 h): ≥ 0.75 µM
- HTLA ER more tolerant to BPPB than HTLA 230 (HTLA ER [1]; 24 h): 1.3 times
- IC50 (HTLA ER [1]; 24 h exposure, 0.1–2 µM, read-out: IC50 HTLA ER): 1240 ± 61 nM
- concentration causing significant reduction in viability of cells (HTLA ER [1]; 48 h): ≥ 0.75 µM
- HTLA ER more tolerant to BPPB than HTLA 230 (HTLA ER [1]; 48 h): 2.9 times
- IC50 (HTLA ER [1]; 48 h exposure, 0.1–2 µM, read-out: IC50 HTLA ER): 1350 ± 52 nM
- concentration causing significant reduction in viability of cells (HTLA ER [1]; 72 h): ≥ 1.00 µM
- HTLA ER more tolerant to BPPB than HTLA 230 (HTLA ER [1]; 72 h): 3.1 times
- IC50 (HTLA ER [1]; 72 h exposure, 0.1–2 µM, read-out: IC50 HTLA ER): 1200 ± 69.5 nM
- IC50 lower than that determined with ETO (HTLA ER [1]; HTLA ER, 24 h, ETO value ref 16): 478 fold
- IC50 (HTLA ER [1]; over 24, 48, 72 h exposure, read-out: IC50 on MDR HTLA ER): 1200 to 1350 nM
- apoptosis (Annexin V-FITC / PI labelling) (HTLA ER [2]; 1 µM): marked apoptosis
- necrosis (DAPI labelling) (HTLA ER [2]; 1.0 µM): did not induce the necrosis
